The results in this text go back to patent US4455290A, “Inhibition of fibrin polymerization by a peptide isolated from fibrin Fragment D1” (Research Corporation, priority 1981, dated 1984).

One data set deals with T1, fibrinogen (Homo sapiens, UniProt P02671+P02675+P02679).
T1 sequence (P02671 36-629 isoform P02671-2): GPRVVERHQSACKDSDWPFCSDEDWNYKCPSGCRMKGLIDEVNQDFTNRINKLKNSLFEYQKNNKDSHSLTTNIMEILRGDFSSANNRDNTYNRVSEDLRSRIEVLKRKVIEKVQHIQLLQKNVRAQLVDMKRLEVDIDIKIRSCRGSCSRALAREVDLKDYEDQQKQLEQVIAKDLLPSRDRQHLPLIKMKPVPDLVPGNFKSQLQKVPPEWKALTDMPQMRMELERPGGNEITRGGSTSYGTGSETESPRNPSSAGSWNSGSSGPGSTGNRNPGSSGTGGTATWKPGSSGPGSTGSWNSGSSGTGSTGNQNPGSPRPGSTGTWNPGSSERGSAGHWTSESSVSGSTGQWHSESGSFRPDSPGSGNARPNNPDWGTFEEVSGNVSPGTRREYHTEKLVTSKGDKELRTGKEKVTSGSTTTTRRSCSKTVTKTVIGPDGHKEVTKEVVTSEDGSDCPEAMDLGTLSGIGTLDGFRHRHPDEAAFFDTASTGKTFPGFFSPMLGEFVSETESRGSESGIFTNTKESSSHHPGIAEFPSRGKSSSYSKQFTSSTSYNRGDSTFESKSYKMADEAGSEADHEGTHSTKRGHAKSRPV
T1 sequence (P02675 45-491): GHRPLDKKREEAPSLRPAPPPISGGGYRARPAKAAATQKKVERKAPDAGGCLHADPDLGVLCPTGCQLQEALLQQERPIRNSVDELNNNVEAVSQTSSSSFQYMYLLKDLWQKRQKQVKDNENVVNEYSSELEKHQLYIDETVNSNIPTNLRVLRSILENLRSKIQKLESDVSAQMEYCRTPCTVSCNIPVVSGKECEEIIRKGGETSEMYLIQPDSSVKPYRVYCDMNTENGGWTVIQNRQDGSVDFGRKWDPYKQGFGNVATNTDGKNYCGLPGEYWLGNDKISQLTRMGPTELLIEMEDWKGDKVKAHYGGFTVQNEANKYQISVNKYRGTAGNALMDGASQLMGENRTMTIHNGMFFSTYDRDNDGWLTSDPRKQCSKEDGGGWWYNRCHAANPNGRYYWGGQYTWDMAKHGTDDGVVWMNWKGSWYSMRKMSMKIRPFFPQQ
T1 sequence (P02679 27-437 isoform P02679-2): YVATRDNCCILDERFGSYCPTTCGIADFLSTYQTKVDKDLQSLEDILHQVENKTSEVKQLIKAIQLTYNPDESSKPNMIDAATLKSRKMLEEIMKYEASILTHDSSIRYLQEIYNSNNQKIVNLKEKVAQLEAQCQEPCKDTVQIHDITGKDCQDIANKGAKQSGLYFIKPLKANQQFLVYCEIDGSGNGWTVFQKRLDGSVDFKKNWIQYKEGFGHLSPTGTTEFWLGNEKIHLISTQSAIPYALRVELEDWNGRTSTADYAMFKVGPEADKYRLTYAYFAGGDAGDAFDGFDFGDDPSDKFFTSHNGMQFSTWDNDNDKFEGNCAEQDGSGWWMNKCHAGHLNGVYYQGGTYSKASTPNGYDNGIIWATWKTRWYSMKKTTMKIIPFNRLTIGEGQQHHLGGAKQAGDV
Kind of data set: Delay of onset of fibrin polymerization, fibrinogen in the presence of thrombin. Format: biochemical. The following applies: 1:1 ratio of D1 Peptide to fibrinogen in the presence of thrombin.

The nature of data set [1]: Elimination from the blood. It is filed as in vivo. The following applies: no method described.
The next data set has as its target T2, Fragment D1 (Homo sapiens, UniProt P02671+P02675+P02679).
T2 construct: consisted of three polypeptide chains of different molecular weights: /α/, 12,000; /β, 43,000; and /γ, 39,000; made in house; host or cells: not recombinant: plasmin (plasminogen + streptokinase) digest of human fibrinogen in calcium, then gel filtration
T2 sequence (P02671 124-225 limits assumed): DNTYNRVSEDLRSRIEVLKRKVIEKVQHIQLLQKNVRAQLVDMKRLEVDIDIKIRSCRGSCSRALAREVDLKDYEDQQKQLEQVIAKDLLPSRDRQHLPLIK
T2 sequence (P02675 164-491 limits assumed): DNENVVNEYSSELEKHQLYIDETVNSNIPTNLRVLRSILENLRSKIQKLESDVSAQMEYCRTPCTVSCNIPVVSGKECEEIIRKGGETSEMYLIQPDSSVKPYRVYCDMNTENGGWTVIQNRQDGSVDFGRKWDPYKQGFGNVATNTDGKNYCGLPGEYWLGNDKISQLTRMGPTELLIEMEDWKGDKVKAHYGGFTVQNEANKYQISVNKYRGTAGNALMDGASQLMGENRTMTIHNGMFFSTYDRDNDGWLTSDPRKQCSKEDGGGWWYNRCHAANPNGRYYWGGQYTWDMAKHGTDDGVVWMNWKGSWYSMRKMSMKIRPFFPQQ
T2 sequence (P02679 89-437 isoform P02679-2 limits assumed): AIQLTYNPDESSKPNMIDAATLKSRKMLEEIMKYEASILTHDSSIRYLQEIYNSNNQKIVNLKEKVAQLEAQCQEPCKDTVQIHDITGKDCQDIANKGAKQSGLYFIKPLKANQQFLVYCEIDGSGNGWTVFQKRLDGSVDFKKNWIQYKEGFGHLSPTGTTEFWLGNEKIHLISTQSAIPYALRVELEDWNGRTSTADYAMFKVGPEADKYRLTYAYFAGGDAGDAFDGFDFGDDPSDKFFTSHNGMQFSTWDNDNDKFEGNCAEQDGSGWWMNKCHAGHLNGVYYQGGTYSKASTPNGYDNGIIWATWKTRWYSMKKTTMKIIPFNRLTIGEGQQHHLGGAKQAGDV
Kind of data set: Equilibrium binding of 125-I D1 Peptide, Fragment D1. An excerpt:
Acta 133, 376-379 (1979).

The next data set deals with T3, intact NDSK (Homo sapiens, UniProt P02671+P02675+P02679).
T3 sequence (P02671 20-70 limits assumed): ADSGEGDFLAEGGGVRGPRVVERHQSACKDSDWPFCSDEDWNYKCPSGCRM
T3 sequence (P02675 31-148 limits assumed): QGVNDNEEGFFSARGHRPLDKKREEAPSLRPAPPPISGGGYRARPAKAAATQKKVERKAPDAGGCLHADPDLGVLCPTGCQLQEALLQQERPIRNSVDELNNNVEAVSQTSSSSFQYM
T3 sequence (P02679 27-104 limits assumed): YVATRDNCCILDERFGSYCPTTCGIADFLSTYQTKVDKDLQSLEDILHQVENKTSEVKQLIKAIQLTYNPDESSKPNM
Kind of data set: Equilibrium binding of 125-I D1 Peptide, intact NDSK.

Peptide text beside a SMILES is read from it.

With `CC[C@H](C)[C@H](NC(=O)[C@H](CCCCN)NC(=O)[C@H](CCSC)NC(=O)[C@@H](NC(=O)[C@@H](NC(=O)[C@H](CCCCN)NC(=O)[C@H](CCCCN)NC(=O)[C@H](CCSC)NC(=O)[C@H](CO)NC(=O)[C@H](Cc1ccc(O)cc1)NC(=O)[C@H](Cc1c[nH]c2ccccc12)NC(=O)[C@H](CCCNC(=N)N)NC(=O)[C@@H](N)[C@@H](C)O)[C@@H](C)O)[C@@H](C)O)C(=O)N[C@H](C(=O)N1CCC[C@H]1C(=O)N[C@@H](Cc1ccccc1)C(=O)N[C@@H](CC(N)=O)C(=O)N[C@@H](CCCNC(=N)N)C(=O)N[C@@H](CC(C)C)C(=O)N[C@H](C(=O)N[C@H](C(=O)NCC(=O)N[C@@H](CCC(=O)O)C(=O)NCC(=O)N[C@@H](CCC(N)=O)C(=O)N[C@@H](CCC(N)=O)C(=O)N[C@@H](Cc1c[nH]cn1)C(=O)N[C@@H](Cc1c[nH]cn1)C(=O)N[C@@H](CC(C)C)C(=O)NCC(=O)NCC(=O)N[C@@H](C)C(=O)N[C@@H](CCCCN)C(=O)N[C@@H](CCC(N)=O)C(=O)N[C@@H](C)C(=O)NCC(=O)N[C@@H](CC(=O)O)C(=O)N[C@H](C(=O)O)C(C)C)[C@@H](C)CC)[C@@H](C)O)[C@@H](C)CC` [D1 Peptide] (H-TRWYSMKKTTMKIIPFNRLTIGEGQQHHLGGAKQAGDV-OH), the “delay of the onset of fibrin polymerization” value on fibrinogen worked out at 8 min. Also, in data set [1], the “elimination from the blood” value was “rapidly eliminated”. Besides, the “binding to Fragment D1” value on Fragment D1 is given as “no measurable binding”. Further, at intact NDSK, the “binding to intact NDSK” value was “no measurable binding”.
